Results as given in US12435087B2, “Modulators of DCN-1 and methods of use thereof” (Cellarity, Inc., priority 2023, dated 2025).
Where two headings read alike, the source gives them in different places.

Biological target: DCN1 (DCUND1) protein PONY domain (Homo sapiens (Human), UniProt Q96GG9)
Assay: TR-FRET assay (binding to DCN-1, displacement of FAM-labeled probe)
Summary of the method: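 Compounds read at 1, 5 and 24 h, 0.1% final DMSO, by TR-FRET between terbium-streptavidin on biotinylated DCN1 PONY domain (E. coli) and a FAM-tagged non-covalent inhibitor probe. Two setups used, 5 nM protein with 20 nM labelled probe, or 0.31 nM protein with 100 nM labelled plus 800 nM unlabelled probe; buffer had TritonX and 200 mM NaCl. % activity relative to high (with probe) and low (without probe) controls.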

[1] = 24 hr after treatment with compound, read-out: TR FRET IC50 24 hr
[2] = TR FRET IC50 1 hr (nM), 1 hr after treatment with compound
[3] = read-out: TR FRET IC50 1 hr, 1 hr after treatment with compound

Chain of DCN1 (DCUND1) protein PONY domain (Q96GG9 60-248): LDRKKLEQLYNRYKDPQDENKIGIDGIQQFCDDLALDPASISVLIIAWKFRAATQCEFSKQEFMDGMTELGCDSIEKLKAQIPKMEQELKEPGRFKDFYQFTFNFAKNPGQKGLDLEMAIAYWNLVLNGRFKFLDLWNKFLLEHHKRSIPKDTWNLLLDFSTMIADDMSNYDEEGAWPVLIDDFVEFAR

Row | Structure (SMILES) | IC50 [1] | IC50 [2] | IC50 [3]
1 | CCN1C(=O)[C@@H](NC(=O)c2cccc(C(F)(F)F)c2)[C@H](c2ccccc2CN(C)C#N)c2c(C)nn(-c3ccccc3)c21 (racemic) [Compound I-30] | 1000 to 3000 nM | 1000 to 3000 nM | 
2 | CCC(=O)NCc1cccc([C@@H]2c3cnn(-c4ccccc4)c3N(CC)C(=O)[C@H]2NC(=O)c2ccn(C(F)(F)F)n2)c1 [Compound I-335] | 200 to 1000 nM | 1000 to 3000 nM | 
3 | C=C(CC(=O)OC)C(=O)Nc1cccc([C@@H]2c3c(C)nn(-c4ccccc4)c3N(CC)C(=O)[C@H]2NC(=O)c2cccc(C(F)(F)F)c2)c1 (racemic) [Compound I-41] | 1000 to 3000 nM | 1000 to 3000 nM | 
4 | C/C=C(\CN1CCN(C2COC2)CC1)C(=O)N(C)c1cccc([C@@H]2c3cnn(-c4ccccc4)c3N(CC)C(=O)[C@H]2NC(=O)c2csc(C(F)(F)F)n2)c1 [Compound I-301, N-((4R,5S)-7-ethyl-4-(3-((E)-N-methyl-2-((4-(oxetan-3-yl)piperazin-1-yl)methyl)but-2-enamido)phenyl)-6-oxo-1-phenyl-4,5,6,7-tetrahydro-1H-pyrazolo[3,4-b]pyridin-5-yl)-2-(trifluoromethyl)thiazole-4-carboxamide] | 200 to 1000 nM | 1000 to 3000 nM | 
5 | C/C=C(\CN(C)C1COC1)C(=O)NCc1cccc([C@@H]2c3cnn(-c4ccccc4)c3N(CC)C(=O)[C@H]2NC(=O)c2ccn(C(F)(F)F)n2)c1 [Compound I-248] | ≤ 200 nM | 200 to 1000 nM | 
6 | C=C(CN1CC2(COC2)C1)C(=O)NCc1cccc([C@H]2c3c(C)nn(-c4ccccc4)c3N(CC)C(=O)[C@H]2NC(=O)c2cccc(C(F)(F)F)c2)c1 [Compound I-304] | 200 to 1000 nM | 1000 to 3000 nM | 
7 | CCN1C(=O)[C@H](NC(=O)c2cccc(C(F)(F)F)c2)[C@@H](c2ccccc2-n2sccc2=O)c2cnn(-c3ccccc3)c21 (racemic) [Compound I-89, ˜{N}—[˜{rac}-(4˜{S},5˜{R})-7-ethyl-6-oxo-4-[2-(3-oxoisothiazol-2-yl)phenyl]-1-phenyl-4,5-dihydropyrazolo[3,4-b]pyridin-5-yl]-3-(trifluoromethyl)benzamide] | 1000 to 3000 nM | 1000 to 3000 nM | 
8 | CCN1C(=O)[C@@H](NC(=O)c2cccc(C(F)(F)F)c2)[C@H](c2cccc(CNC#N)c2)c2c(C)nn(-c3ccccc3)c21 (racemic) [Compound I-138] | 200 to 1000 nM | 200 to 1000 nM | 
9 | CCN1C(=O)[C@@H](NC(=O)c2cccc(C(F)(F)F)c2)[C@H](c2cccc(NC(=O)C3=CCCN(C)C3)c2)c2cnn(-c3ccccc3)c21 (racemic) [Compound I-58] | ≤ 200 nM | 1000 to 3000 nM | 
10 | C/C=C(\CN1CCOCC1)C(=O)NCc1cccc([C@@H]2c3cnn(-c4ccccc4)c3N(CC)C(=O)[C@H]2NC(=O)c2ccn(C3CC3)n2)c1 [Compound I-241] | ≤ 200 nM | 1000 to 3000 nM | 
11 | C/C=C(\CN1CC2(COC2)C1)C(=O)N(C)Cc1cccc([C@@H]2c3cnn(-c4ccccc4)c3N(CC)C(=O)[C@H]2NC(=O)c2nccc(C(F)(F)F)n2)c1 [Compound I-235] | 1000 to 3000 nM | 1000 to 3000 nM | 
12 | CCN1C(=O)[C@@H](NC(=O)c2cccc(C(F)(F)F)c2)[C@H](c2cccc(CNC(=O)/C(C)=C/C(=O)OC)c2)c2cnn(-c3ccccc3)c21 [Compound I-95] | 1000 to 3000 nM | 1000 to 3000 nM | 
13 | C=C(CN1CCN(C2COC2)CC1)C(=O)N[C@@H](C)c1cccc([C@@H]2c3cnn(-c4ccccc4)c3N(CC)C(=O)[C@H]2NC(=O)c2nccc(C(F)(F)F)n2)c1 (mixture of isomers) [Compound I-380] | 1000 to 3000 nM | 1000 to 3000 nM | 
14 | CCN1C(=O)[C@H](NC(=O)c2cccc(C(F)(F)F)c2)[C@@H](c2ccccc2NC(C)=O)c2cnn(-c3ccccc3)c21 (racemic) [Compound I-26, rac-N-((4R,5S)-4-(2-acetamidophenyl)-7-ethyl-6-oxo-1-phenyl-4,5,6,7-tetrahydro-1H-pyrazolo[3,4-b]pyridin-5-yl)-3-(trifluoromethyl)benzamide] | > 3000 nM | > 3000 nM | 
15 | C=C(CN1CC2(COC2)C1)C(=O)NCc1cccc([C@@H]2c3c(C)nn(-c4ccccc4)c3N(CC)C(=O)[C@H]2NC(=O)c2cccc(C(F)(F)F)c2)c1 [Compound I-283] | ≤ 200 nM |  | ≤ 200 nM
16 | CCN1C(=O)[C@H](NC(=O)c2cccc(C(F)(F)F)c2)[C@@H](c2cccc(CNC(=O)C3=CCN(C)C3)c2)c2cnn(-c3ccccc3)c21 [Compound I-128] | 1000 to 3000 nM | 1000 to 3000 nM | 
17 | C/C=C(\CN(C)C1COC1)C(=O)Nc1cccc([C@@H]2c3cnn(-c4ccccc4)c3N(CC)C(=O)[C@H]2NC(=O)c2nccc(C(F)(F)F)n2)c1 [Compound I-384] | ≤ 200 nM | 200 to 1000 nM | 
18 | CCN1C(=O)[C@@H](NC(=O)c2cccc(C(F)(F)F)c2)[C@H](c2cccc(NC(=O)/C=C(\C)C(=O)OC)c2)c2c(C)nn(-c3ccccc3)c21 (racemic) [Compound I-157] | 200 to 1000 nM | 1000 to 3000 nM | 

Row | Structure (SMILES) | IC50 [1] | IC50 [2] | IC50 [3]
19 | C=C(C(=O)NCc1cccc([C@@H]2c3cnn(-c4ccccc4)c3N(CC)C(=O)[C@H]2NC(=O)c2nccc(C(F)(F)F)n2)c1)[C@H](C)N(C)C1COC1 (single isomer, unassigned) [Compound I-382] |  | 200 to 1000 nM | 
20 | C=C(CN1CC2(CCO2)C1)C(=O)NCc1cccc([C@@H]2c3cnn(-c4ccccc4)c3N(CC)C(=O)[C@H]2NC(=O)c2cccc(C(F)(F)F)c2)c1 [Compound I-63] | ≤ 200 nM |  | ≤ 200 nM
21 | CCN1C(=O)[C@@H](NC(=O)c2cccc(C(F)(F)F)c2)[C@H](c2cccc(CN(C)C/C=C/C(=O)OC(C)(C)C)c2)c2cnn(-c3ccccc3)c21 [Compound I-238, tert-butyl (E)-4-((3-((4R,5S)-7-ethyl-6-oxo-1-phenyl-5-(3-(trifluoromethyl)benzamido)-4,5,6,7-tetrahydro-1H-pyrazolo[3,4-b]pyridin-4-yl)benzyl)(methyl)amino)but-2-enoate] | 1000 to 3000 nM | 1000 to 3000 nM | 
22 | C/C=C(/CN1CCOCC1)C(=O)NCc1cccc([C@@H]2c3cnn(-c4ccccc4)c3N(CC)C(=O)[C@H]2NC(=O)c2ccn(C3CC3)n2)c1 [Compound I-381] | 1000 to 3000 nM | 1000 to 3000 nM | 
23 | C=C(C(=O)NCc1cccc([C@@H]2c3cnn(-c4ccccc4)c3N(CC)C(=O)[C@H]2NC(=O)c2nccc(C(F)(F)F)n2)c1)C(C)N1CC2CC(C1)O2 (some centres unmarked) [Compound I-324] | ≤ 200 nM |  | ≤ 200 nM
24 | C/C=C(\CN(C)C1COC1)C(=O)NCc1cccc([C@@H]2c3cnn(-c4ccccc4)c3N(CC)C(=O)[C@H]2NC(=O)c2csc(C(F)(F)F)n2)c1 [Compound I-365] | ≤ 200 nM | 200 to 1000 nM | 
25 | CCN1C(=O)[C@@H](NC(=O)c2cccc(C(F)(F)F)c2)[C@H](c2cccc(NC(=O)C3=CCC3)c2)c2c(C)nn(-c3ccccc3)c21 [Compound I-70, N-((4R,5S)-4-(3-(cyclobut-1-ene-1-carboxamido)phenyl)-7-ethyl-3-methyl-6-oxo-1-phenyl-4,5,6,7-tetrahydro-1H-pyrazolo[3,4-b]pyridin-5-yl)-3-(trifluoromethyl)benzamide] | 200 to 1000 nM | 1000 to 3000 nM | 
26 | C=C(CN1CC(F)(F)C1)C(=O)NCc1cccc([C@H]2c3cnn(-c4ccccc4)c3N(CC)C(=O)[C@@H]2NC(=O)c2cccc(C(F)(F)F)c2)c1 [Compound I-96] | 1000 to 3000 nM | 1000 to 3000 nM | 
27 | CCN1C(=O)[C@@H](NC(=O)c2cccc(C(F)(F)F)c2)[C@H](c2cccc(NC(=O)/C=C/CN(C)C)c2F)c2cnn(-c3ccccc3)c21 (racemic) [Compound I-56] | ≤ 200 nM | 200 to 1000 nM | 
28 | C/C=C(\CN1CC2(COC2)C1)C(=O)NCc1cccc([C@@H]2c3cnn(-c4ccccc4)c3N(CC)C(=O)[C@H]2NC(=O)c2nccc(C(F)(F)F)n2)c1 [Compound I-243] | ≤ 200 nM | 200 to 1000 nM | 
29 | CCN1C(=O)[C@@H](NC(=O)c2cccc(C(F)(F)F)c2)[C@H](c2cc(NC(=O)/C=C/CN(C)C)ccc2F)c2cnn(-c3ccccc3)c21 (racemic) [Compound I-79] | 200 to 1000 nM | 1000 to 3000 nM | 
30 | CCN1C(=O)[C@@H](NC(=O)c2cccc(C(F)(F)F)c2)[C@H](c2cccc(CNC(=O)C3=CCN(C)C3)c2)c2c(C)nn(-c3ccccc3)c21 [Compound I-244] | ≤ 200 nM | 1000 to 3000 nM | 
31 | CCN1C(=O)[C@@H](NC(=O)c2cccc(C(F)(F)F)c2)[C@H](c2ccccc2CNC(=O)C(F)Cl)c2cnn(-c3ccccc3)c21 (mixture of isomers) [Compound I-105] | 1000 to 3000 nM | 1000 to 3000 nM | 
32 | CCN1C(=O)[C@H](NC(=O)c2cccc(C(F)(F)F)c2)[C@@H](c2ccccc2NC(=O)CCl)c2c(C)nn(-c3ccccc3)c21 [Compound I-110, N-((4S,5R)-4-(2-(2-chloroacetamido)phenyl)-7-ethyl-3-methyl-6-oxo-1-phenyl-4,5,6,7-tetrahydro-1H-pyrazolo[3,4-b]pyridin-5-yl)-3-(trifluoromethyl)benzamide] | 1000 to 3000 nM | 1000 to 3000 nM | 
33 | C=C(CN1CCC12COC2)C(=O)NCc1cccc([C@@H]2c3cnn(-c4ccccc4)c3N(CC)C(=O)[C@H]2NC(=O)c2ccn(C(F)(F)F)n2)c1 [Compound I-247] | ≤ 200 nM | 200 to 1000 nM | 
34 | C=C(C(=O)N(C)Cc1cccc([C@@H]2c3cnn(-c4ccccc4)c3N(CC)C(=O)[C@H]2NC(=O)c2ccn(C3CC3)n2)c1)C(C)N1CC2CC(C1)O2 (some centres unmarked) [Compound I-286] | ≤ 200 nM | 1000 to 3000 nM | 
35 | C=C(CN1CCOCC1)C(=O)NCc1cccc([C@@H]2c3cnn(-c4ccccc4)c3N(CC)C(=O)[C@H]2NC(=O)c2ccn(C)n2)c1 [Compound I-338] | ≤ 200 nM | 1000 to 3000 nM | 
36 | C=C(C(=O)NCc1cccc([C@@H]2c3cnn(-c4ccccc4)c3N(CC)C(=O)[C@H]2NC(=O)c2ccn(C3CC3)n2)c1)C(C)N(C)C1COC1 (some centres unmarked) [Compound I-327] | ≤ 200 nM |  | ≤ 200 nM
